In general, Emax refers to the greatest response seen or fitted, relative to the assay's reference.

For this assay, the target named is T1, GBA (glucosylceramidase, GCase), L444P GBA mutation (Homo sapiens, UniProt P04062, L483P).
T1 construct: Human fibroblast cell line GM10915 harboring the L444P GBA mutation was obtained from Coriell Biorepositories; host or cells: GM10915 human fibroblasts
T1 sequence (P04062 40-536 L483P): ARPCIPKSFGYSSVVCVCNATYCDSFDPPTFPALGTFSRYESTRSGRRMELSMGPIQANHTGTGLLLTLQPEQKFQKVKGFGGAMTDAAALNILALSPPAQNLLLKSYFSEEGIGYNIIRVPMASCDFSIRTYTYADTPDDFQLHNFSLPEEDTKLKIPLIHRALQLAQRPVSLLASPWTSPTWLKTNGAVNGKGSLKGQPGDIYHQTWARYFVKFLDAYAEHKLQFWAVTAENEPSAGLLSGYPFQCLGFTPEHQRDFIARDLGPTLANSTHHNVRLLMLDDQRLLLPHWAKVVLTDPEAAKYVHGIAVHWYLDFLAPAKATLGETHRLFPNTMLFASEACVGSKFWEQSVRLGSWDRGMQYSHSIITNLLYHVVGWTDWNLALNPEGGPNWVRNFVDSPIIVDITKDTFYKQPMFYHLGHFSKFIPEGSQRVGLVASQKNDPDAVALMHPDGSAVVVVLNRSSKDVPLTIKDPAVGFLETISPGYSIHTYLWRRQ
Put plainly: GCase activity assay (4-MUG) in GM10915 fibroblasts, normalised to crystal violet staining. The note with it: five days exposure; for GBA EC1.5: concentration where Percent GCase activity = 150% (1.5-fold induction), human fibroblast cell line GM10915 (L444P GBA), 8-point dose range; for Emax: maximum Percent GCase activity in the dose range tested, relative to basal activity of untreated cells, GM10915 (L444P GBA). Format: cell-based. As for the experimental part: Human fibroblast cell line GM10915 harboring the L444P GBA mutation was obtained from Coriell Biorepositories.
The GM10915 cell line was cultured under standard cell culture conditions (37° C. and 5% CO2) in complete DMEM medium supplemented with nonessential amino acids (NEAA), 1% Pen-Strep and 12% FCS. Cells were seeded at a density of 10^4 cells/well in 100 μL complete medium in one black 96-well plate for glucosylceramidase (GCase) activity measurement and in one clear 96-well plate for crystal violet staining to correct for cell density. Crystal violet staining is performed to obtain quantitative information about the relative density of cells adhering to multi-wells plates.
The assay was adapted from Sawkar et al (2002) and briefly described in the following. The day after seeding of cells, the medium was replaced with fresh medium containing the compounds to be tested. Compounds were tested in duplicate and in an 8-point diluted dose range to obtain a dose response. Cells were exposed with compounds for five days. Fresh compound was added every 2-3 days. PBS was included to define the basal level of GCase activity.
Cells were washed three times with 200 μL PBS per well and 50 μL of 2.5 mM 4-MUG buffer (4-MUG dissolved in 0.2 M acetate buffer pH 4.0) was added and the cells were incubated at 37° C., 5% CO2 for 23 hours. The reaction was stopped by adding 150 μL 0.2 M glycine buffer (pH 10.8). Fluorescence was measured with a Varioskan® Flash reader (Thermo Scientific) at an excitation/emission setting of 365/445 nm.
Cells were treated with compounds in a parallel setup identical to the setup to test for GCase activity. At the end of compound treatment, cells were washed once with 200 μL PBS per well and 50 μL 0.1% w/v crystal violet (in H20) was added. Following 10 min. of incubation, the crystal violet solution was removed, and the cells were washed three times with 200 μL PBS and 100 μL 1% SDS was added to solubilize the stain.
The plate was agitated on an orbital shaker for 10-30 min. Absorbance (A) is measured at […] using a Varioskan® Flash reader (Thermo Scientific).
The fluorescence signal (F) derived from the GCase measurement is normalized to the absorbance signal (A) derived from the crystal violet staining. The percent GCase activity resulting from compound treatment is calculated relative to the basal activity obtained from untreated cells.
Maximal effect of compounds (E max) is determined from the dose response effects as the maximum “Percent GCase activity” achieved in the dose range tested.

Regarding `c1cc(CN2CCCCC2)nc(C2CCNCC2)n1` [compound 638], the “GBA EC1.5” value is 4.1 µM and the Emax was 263%.

Consider `c1nc2cnc(C3CCNCC3)cn2c1CN1CCCCC1` [compound 841], for which the “GBA EC1.5” value was found to be 35.9 µM and the maximal response (Emax) was 181%.

As for `c1cc(CN2CCCCC2)nc(C2CCCNC2)c1` (centres unmarked) [compound 791], the “GBA EC1.5” value was determined as 4.4 µM and the Emax stood at 165%.

As to `Cc1cc(CN2CCCCC2)nc(C2CCCNC2)c1` (centres unmarked) [compound 732], the “GBA EC1.5” value amounted to 3.2 µM and the Emax amounted to 200%.

`C1CCN(Cc2noc(C3CCCNC3)n2)CC1` (centres unmarked) [compound 614]: the “GBA EC1.5” value is 46 µM and the Emax stood at 169%.

With `CN1CCCC(c2cncc(CN3CCCCC3)c2)C1` (centres unmarked) [compound 736], the “GBA EC1.5” value was 3.7 µM and the Emax is 216%.

Regarding `c1cc2ncc(CN3CCCCC3)n2cc1C1CCNCC1` [compound 853], the “GBA EC1.5” value turned out to be 8.0 µM and the Emax was 193%.

For the molecule `CC(c1cncc(C2CCNCC2)c1)N1CCCCC1` (centres unmarked) [compound 772], the “GBA EC1.5” value was determined as 18.5 µM and the Emax was determined as 211%.

Consider `c1cc(CN2CCCCC2)cc(C2CCNCC2)n1` [compound 540], for which the “GBA EC1.5” value turned out to be 5.4 µM and the Emax came out at 177%.

Turning to `c1nc2cc(CN3CCCCC3)oc2cc1C1CCNCC1` [compound 868], the “GBA EC1.5” value was determined as 6.5 µM and the Emax was 204%.
